Test results as given in patent publication US10581022B2, “Polymerizable liquid crystal compound, composition, liquid crystal polymerization film-kind thereof and use thereof” (JNC CORPORATION, priority 2015, dated 2020).

Assay: Solubility of compound in solvent
Type: physicochemical
Design: key: Good: represents that the compound was completely dissolved; Poor: represents that an insoluble matter remained
Conditions: 40° C., after 30 minutes, visual
Procedure: With regard to various solvents, a specific amount of compound (1-1-1-1) was added to various solvents each, and the resulting mixture was warmed in warm water at 40° C., and an aspect after 30 minutes was visually confirmed. A similar method was tried in compound (1-1-2-1), compound (C-1) and compound (C-2) in place of compound (1-1-1-1).
An amount of the compound added as described in Table 4 is expressed in terms of a relative value when a total weight of the solvent and the compound is taken as 100% by weight. A term “Good” in Table 4 represents that the compound was completely dissolved, and a term “Poor” in Table 4 represents that an insoluble matter remained.

solubility in 4-methyl-2-pentanone (15% by weight of compound) | solubility in cyclohexanone (15% by weight of compound) | solubility in methoxybenzene (15% by weight of compound) | solubility in 4-methyl-2-pentanone (30% by weight of compound) | solubility in cyclohexanone (30% by weight of compound) | solubility in methoxybenzene (30% by weight of compound) | Structure (SMILES) | solubility in 2-acetoxy-1-methoxypropane (15% by weight of compound) | solubility in 2-acetoxy-1-methoxypropane (30% by weight of compound)
Poor | Good | Good | Poor | Poor | Poor | C=CC(=O)OCCCCOc1ccc(OC(=O)C2CCC(C(=O)Oc3ccc(OC(=O)C4CCC(C(=O)Oc5ccc(OCCCCOC(=O)C=C)cc5)CC4)c(C=NNc4nc5ccccc5s4)c3)CC2)cc1 (centres unmarked) [Compound (C-2)] | Poor | Poor
Poor | Good | Good | Poor | Poor | Poor | C=CC(=O)OCCCCOc1ccc(OC(=O)[C@H]2CC[C@H](C(=O)Oc3ccc(OC(=O)[C@H]4CC[C@H](C(=O)Oc5ccc(OCCCCOC(=O)C=C)cc5)CC4)c4sc(-c5ccccc5)nc34)CC2)cc1 [Compound (C-1)] | Poor | Poor
Good | Good | Good | Poor | Good | Good | C=CC(=O)OCCCCCCOc1ccc(CCC(=O)O[C@H]2CC[C@H](C(=O)Oc3ccc(OC(=O)[C@H]4CC[C@H](OC(=O)CCc5ccc(OCCCCCCOC(=O)C=C)cc5)CC4)c4nc(-c5ccccc5)c(C)nc34)CC2)cc1 [Compound (1-1-2-1)] | Good | Poor
Poor | Good | Good | Poor | Good | Good | C=CC(=O)OCCCCCCOc1ccc(CCC(=O)O[C@H]2CC[C@H](C(=O)Oc3ccc(OC(=O)[C@H]4CC[C@H](OC(=O)CCc5ccc(OCCCCCCOC(=O)C=C)cc5)CC4)c4nc(-c5ccccc5)cnc34)CC2)cc1 [Compound (1-1-1-1)] | Poor | Poor
